Laboratory results taken from paper PMC7269337, “Spiro-containing derivatives show antiparasitic activity against Trypanosoma brucei through inhibition of the trypanothione reductase enzyme” (PLoS Neglected Tropical Diseases, 2020).
Converted amounts (≈) assume the structure as drawn. Like-named read-outs stand apart in the source and are kept apart here. One block for each compound: values may come before it.

What was measured:
TbTR [1] = biological target: T1, TbTR (Trypanosoma brucei brucei, UniProt P39051); test: TS2 competition assay (TbTR luminescent assay); assay type: biochemical; conditions: 5 or 25 μM compound
T1 construct: the gene coding for the enzyme (aa 1–492) was codon optimized for the expression in E.coli; made in house; host or cells: E. coli BL21(DE3)
T1 sequence (P39051 whole entry, the tested form may be a part): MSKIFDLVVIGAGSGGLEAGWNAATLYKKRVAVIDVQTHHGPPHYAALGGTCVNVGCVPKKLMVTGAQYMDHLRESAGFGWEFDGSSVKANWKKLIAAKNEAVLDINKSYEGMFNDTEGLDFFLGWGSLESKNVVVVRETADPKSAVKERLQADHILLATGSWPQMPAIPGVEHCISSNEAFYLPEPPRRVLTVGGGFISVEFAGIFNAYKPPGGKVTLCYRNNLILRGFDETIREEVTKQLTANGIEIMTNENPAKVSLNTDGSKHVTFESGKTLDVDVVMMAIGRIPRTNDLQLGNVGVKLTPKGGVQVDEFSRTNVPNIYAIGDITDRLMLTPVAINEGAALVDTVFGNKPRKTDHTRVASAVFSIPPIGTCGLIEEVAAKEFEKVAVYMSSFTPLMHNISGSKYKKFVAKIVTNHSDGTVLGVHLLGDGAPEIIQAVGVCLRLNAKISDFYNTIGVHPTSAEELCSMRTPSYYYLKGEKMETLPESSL
Description: Competition experiments were performed at two different compound concentrations (5 μM and 25 μM) by TbTR luminescent assay. The apparent Km values for TS2 in presence of 20 μM NADPH were calculated using 1 nM TR after 10 min incubation. […] The luminescent signal was measured using the EnVision plate reader (PerkinElmer, USA). IC50, Vmax, and Km values were calculated using Prism software (GraphPad, San Diego, CA).

[2] = tested on: endogenous TbTR activity in T. brucei lysate; test: T. brucei lysate thiol formation assay; assay type: biochemical, Trypanosoma brucei; conditions: 200 μM NADPH, 50 μM TS2, 100 μM DTNB, 30 min, absorbance 412 nm; read-out: IC50, inhibition of endogenous TbTR activity in T. brucei lysate
Description: T. brucei parasites were grown on IMDM medium (Iscove’s Modified Dulbecco’s Medium) supplied with 3 gr/L sodium bicarbonate, 136 mg/L hypoxanthine, 39 mg/L thymidine, 28.2 mg/L bathocuprione sulfonic acid, 0.5 mM cysteine, 0.001% β-mercaptoethanol and 10% heat-inactivated Calf serum. 1.5 x 10^6 compound treated parasite per well were lysed using 1 mM EDTA, 40 mM Hepes pH 7.5, 50 mM Tris-HCl pH 7.5, 2% Triton-X100 and protease inhibitors cocktail (Sigma). 200 μM NADPH, 50 μM TS2, 100 μM DTNB were added in each well to trigger the TbTR activity. After 30 min incubation the absorbance signal (412 nm) was detected using the Safire2 plate reader (Tecan, Switzerland).

physchem = assay type: physicochemical; conditions: pH 7.4, aqueous buffer
Description: The solubility testing was carried out as previously reported.

TbTR [3] = biological target: T1, TbTR; test: TbTR DTNB absorbance assay; assay type: biochemical
Description: (§1) Compounds from 10 mM stock solutions were transferred to assay plates by acoustic transfer (EDC Biosystems, Milmont, CA). The TbTR luminescent assay was performed in 384-well white plate (Greiner Bio One, Frickenhausen, Germany). The following components were added to the plates to a final volume of 30 μL: 0.1 nM TR, 20 μM NADPH, 10 μM TS2 in 50 mM HEPES (pH 7.4), 40 mM NaCl, 0.01% BSA. After 60 min of incubation at room temperature the residual amount of NADPH was measured by addition of an equal volume of NADPH-Glo as per the manufacturer’s protocol and the luminescent signal was acquired by an EnVision plate reader (PerkinElmer, Waltham, MA). […] After 10 minutes of incubation at room temperature the absorbance signal (412 nm) was detected using the Safire2 plate reader (Tecan, Switzerland). […] Results were analyzed using Prism software (GraphPad, San Diego, CA) and Vortex (Dotmatics, Bioshops Stortford, UK). […]
(§2) L. infantum TR was cloned and purified as previously described.[1] […] After 60 min of incubation at room temperature, an equal volume of NADPH-Glo reagent was added and the luminescent signal was acquired by an EnVision plate reader […]
(§3) after 30 minute (Figure S1) according to the reagent data sheet. […] The absorbance signal (412 nm) was acquired 15 minutes post incubation at room temperature using the plate reader (Safire2, Tecan, Switzerland). […]

[4] = biological target: T2, Leishmania infantum TR (LiTR) (Leishmania infantum, UniProt A4HSF7); test: LiTR luminescent (NADPH-Glo) enzyme assay; assay type: biochemical
T2 construct: made in house
T2 sequence (A4HSF7 entry or part of it): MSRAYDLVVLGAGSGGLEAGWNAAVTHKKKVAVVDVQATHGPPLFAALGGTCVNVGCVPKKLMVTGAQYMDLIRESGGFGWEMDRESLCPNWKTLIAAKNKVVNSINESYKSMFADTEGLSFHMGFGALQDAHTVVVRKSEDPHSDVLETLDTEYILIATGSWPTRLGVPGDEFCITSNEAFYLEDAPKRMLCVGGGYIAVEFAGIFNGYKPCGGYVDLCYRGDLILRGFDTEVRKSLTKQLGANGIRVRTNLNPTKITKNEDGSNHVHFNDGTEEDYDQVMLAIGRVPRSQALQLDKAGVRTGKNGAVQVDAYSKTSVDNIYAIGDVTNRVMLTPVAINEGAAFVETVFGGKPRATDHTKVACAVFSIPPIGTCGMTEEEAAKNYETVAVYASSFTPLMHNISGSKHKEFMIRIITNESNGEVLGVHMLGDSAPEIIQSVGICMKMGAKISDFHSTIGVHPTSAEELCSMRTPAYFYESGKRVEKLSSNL
Source text: S5 Fig. inhibition of Leismania infantum trypanothione reductase (LiTR) by Compound 1. Each experimental point is the average of three replicates.
The following method was used to determine the inhibition of the LiTR activity:
L. infantum TR was cloned and purified as previously described.[1] Bovine serum albumin (BSA), NADPH, auranofin, hGR, oxidized glutathione (GSSG) and DTNB were purchased from Sigma-Aldrich (St. Louis, MO); oxidized trypanothione (TS2) was purchased from Bachem (Bubendorf, Switzerland); the NADPH-Glo kit was purchased from Promega (Madison, WI, U.S.A.). Compounds, dissolved in DMSO, were transferred to 384-well white plates (Greiner Bio One, Frickenhausen, Germany) using the acoustic droplet ejection technology (ATS-100, EDC Biosystems, U.S.A.) to reach the desired final concentration. […] After 60 min of incubation at room temperature, an equal volume of NADPH-Glo reagent was added and the luminescent signal was acquired by an EnVision plate reader […]
as §3, with “Switzerland). Results were analyzed using Prism software (GraphPad, San Diego, CA, U.S.A.) and Vortex (Dotmatics, Bioshops Stortford, UK).” for “Switzerland).”

T. brucei parasites = test: T. brucei growth inhibition assay (CellTiter-Glo); assay type: cell-based; conditions: Trypanosoma brucei, 24 h treatment, read-out: IC50, anti-proliferative activity on T. brucei culture
Description: The anti-proliferative effect of testing compounds on T. brucei in vitro cultures was carried out by incubating compounds with 1.5 × 10^3 parasite per well followed by 24 incubation at 37°C and 5% CO2. The parasite viability was measured by CellTiter-Glo according to the manufacturer's instructions.

TbTR [5] = biological target: T1, TbTR; test: SPR binding assay on immobilized TbTR
Description: Surface Plasmon resonance (SPR) interaction analysis were performed using a Biacore T200 (GE Healthcare, Uppsala, Sweden). TbTR was immobilized on a CM4 chip by amine coupling according to manufacturer’s instructions (Amine Coupling Kit, GE Healthcare, Uppsala, Sweden). Briefly, the surface of the sensor chip was activated for 7 minutes using a mixture of 0.1 M N-hydroxy succinimide (NHS) and 0.4 M N-ethyl-N’-[3-dimethyl-aminopropyl] carbodiimide (EDC) then 30 μg/ml of […] in 10 mM sodium acetate (pH 4.5) was injected for 360 s at 10 μl/min, finally residual activated groups on the surface were blocked by a 7 min injection of 1 M ethanolamine (pH 8.5). A reference channel for background subtraction was prepared by activation with EDC/NHS mixture (0.1 M/0.4 M as per ligand immobilization), followed by blocking with 1 M ethanolamine. The binding of the selected hit to the immobilized ligand was evaluated by a multi-cycle kinetic procedure in PBS-P (GE Healthcare Lifescience) supplemented with 2% DMSO (Sigma Aldrich). The analyte was injected for 60 s at 50 μl/min until equilibrium and dissociation monitored for 600 s. A standard curve of DMSO was included for solvent correction.
Biomolecular binding events were reported as changes of resonance units (RUs) over time. The data were analyzed by the Biacore T200 evaluation software. The sensorgrams were obtained, by subtracting the signals of the reference channel to those of the TbTR-immobilized one, and corrected for DMSO interference using the DMSO standard curve. The binding affinity was evaluated from kinetic parameters (koff/kon) calculated according to a heterogeneous ligand binding model.

[6] = biological target: T3, TbTR (Trypanosoma brucei trypanothione reductase) (Trypanosoma brucei brucei, UniProt P39051); test: TbTR luminescent (NADPH-Glo) enzyme assay; assay type: biochemical
T3 construct: the gene coding for the enzyme (aa 1–492) was codon optimized for the expression in E.coli; made in house; host or cells: E. coli BL21(DE3)
T3 sequence (P39051 whole entry, the tested form may be a part): as the sequence (P39051 whole entry, the tested form may be a part) above
Description: Compounds from 10 mM stock solutions were transferred to assay plates by acoustic transfer (EDC Biosystems, Milmont, CA). The TbTR luminescent assay was performed in 384-well white plate (Greiner Bio One, Frickenhausen, Germany). The following components were added to the plates to a final volume of 30 μL: 0.1 nM TR, 20 μM NADPH, 10 μM TS2 in 50 mM HEPES (pH 7.4), 40 mM NaCl, 0.01% BSA. After 60 min of incubation at room temperature the residual amount of NADPH was measured by addition of an equal volume of NADPH-Glo as per the manufacturer’s protocol and the luminescent signal was acquired by an EnVision plate reader (PerkinElmer, Waltham, MA). The DTNB assay was performed in a final volume of 50 μl by addition of 2 nM TR, 100 μM NADPH, 4 μM TS2 and 200 μM DTNB in 40 mM HEPES (pH 7.4), 1 mM EDTA, 0.01% BSA and 0.05% Tween-20. After 10 minutes of incubation at room temperature the absorbance signal (412 nm) was detected using the Safire2 plate reader (Tecan, Switzerland). The human glutathione reductase (hGR) activity assay was carried out as described by Turcano et al.[23]. Results were analyzed using Prism software (GraphPad, San Diego, CA) and Vortex (Dotmatics, Bioshops Stortford, UK). Dose-response curves were fitted by four-parameter logistic regression.
The TbTR enzyme enzyme was produced in bacteria, purified as described in materials and methods and used to develop an in vitro enzyme assay (Fig 1A). To measure TbTR activity, a luminescent assay was optimized starting from a design that we previously described. First we determined the linearity range of the NADPH detection signal via NADPH-Glo kit that was determined to be 50 μM (Fig 1B). The Km (apparent) value for TS2 was calculated using 1 nM TR in the presence of serial dilutions of TS2 and a fixed concentration of 40 μM NADPH. The luminescence signal was detected in the first 10 min of reaction. NADPH depletion, calculated using the NADPH standard curve (Fig 1B), allowed the determination of the apparent Km values by the Michaelis-Menten kinetic (Fig 1C). The Km for TS2 was calculated to be 4.0 ± 0.7 μM. To further optimize the assay, a time course experiment was carried out. Different concentrations of the TbTR enzyme, ranging from 0.025 to 0.2 nM, were used, while the TS2 concentration was fixed near the Km value (5 μM) and the NADPH concentration was 20 μM that falls within the linearity range observed for the NADPH standard curve. 0.1 nM TbTR at and 60 min of incubation were judged to be an optimal compromise for preserving the reaction linearity along with a good signal to background ratio (Fig 1D) and allowing a suitable time for the screening operations. The final conditions used for the screening were: 0.1 nM TbTR, 5 μM TS2, 20 μM NADPH with the incubation time of the reaction being 60 minutes.

[7] = biological target: T4, human glutathione reductase (hGR) (Homo sapiens, UniProt P00390); test: human glutathione reductase (hGR) activity assay; assay type: biochemical
T4 construct: purchased Sigma-Aldrich
T4 sequence (P00390 44-522): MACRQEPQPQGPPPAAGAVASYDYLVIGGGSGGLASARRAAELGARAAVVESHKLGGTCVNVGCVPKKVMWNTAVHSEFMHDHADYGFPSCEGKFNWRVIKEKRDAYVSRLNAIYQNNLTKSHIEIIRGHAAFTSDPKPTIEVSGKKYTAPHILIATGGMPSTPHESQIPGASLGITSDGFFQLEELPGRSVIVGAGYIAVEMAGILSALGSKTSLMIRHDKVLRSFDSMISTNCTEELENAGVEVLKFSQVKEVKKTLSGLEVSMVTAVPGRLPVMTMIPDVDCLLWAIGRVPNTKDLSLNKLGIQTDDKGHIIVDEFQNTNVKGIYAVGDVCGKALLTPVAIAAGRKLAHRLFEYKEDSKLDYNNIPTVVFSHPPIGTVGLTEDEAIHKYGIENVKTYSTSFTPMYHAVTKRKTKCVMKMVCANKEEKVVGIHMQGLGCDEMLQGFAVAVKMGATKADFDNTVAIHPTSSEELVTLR
Description: as §1, §2, §3

[8] = TbTR assay IC50, luminescence assay, n=4, dose-response from 85 μM

SMILES: CN(CCCN1CN(c2ccccc2)C2(CCN(CC[C@@H]3CC[C@H]4C[C@@H]3C4(C)C)CC2)C1=O)CC1(O)CCN(C(=N)N)CC1 [Compound 1, 4-(((3-(8-(2-((1S,2S,5S)-6,6-dimethylbicyclo[3.1.1]heptan-2-yl)ethyl)-4-oxo-1-phenyl-1,3,8-triazaspiro[4.5]decan-3-yl)propyl)(methyl)amino)methyl)-4-hydroxypiperidine-1-carboximidamide]
- change in calculated Vmax (TbTR [1]): No changes
- mode of inhibition versus TS2 (TbTR [1]): competitive with TS2
- IC50 [2]: 5.7 ± 0.6 µM
- solubility (physchem): 185 µM (≈ 113 µg/mL)
- IC50 (TbTR [3]): 0.966 ± 0.068 µM
- IC50 [4]: 3.8 ± 0.6 µM
- IC50 (T. brucei parasites): 2.2 ± 2.4 µM
- Kd (TbTR [5]): 10.3 ± 2.9 µM
- koff (TbTR [5]): 0.035 ± 0.014 s⁻¹
- binding to TbTR (reversibility) (TbTR [5]; SPR, 0.3125 to 20 μM): reversible binding
- IC50 ([6]; TbTR IC50, luminescence assay): 3.5 ± 2.2 µM
- IC50 [6, 8]: 3.5 ± 2.19 µM
- IC50 [7]: > 50 µM
- activity against human glutathione reductase (hGR) [7]: no activity was detected

- IC50 ([6]; luminescence assay, n=4, dose-response from 85 μM, read-out: TbTR assay IC50): > 85 µM
SMILES: O=C(CCCN1CCC2(CC1)C(=O)NCN2c1ccccc1)c1ccc(F)cc1 [Compound 5, Spiperone, reference compound]

SMILES: O=C(CCN1CN(c2ccccc2)C2(CCNCC2)C1=O)NC(c1ccccc1)c1ccccc1 [Compound 18]
- IC50 [6, 8]: > 85 µM
